Positions count from the first letter of the chain named.
Columns and labels:
[1] = target: T1, FicD^WT (Homo sapiens, UniProt Q9BVA6); assay: MIDAS equilibrium dialysis/mass spectrometry metabolite screen, FicD^WT; type: binding; settings: cutoff Q < 0.05 and |Log2 corrected fold change| > 2, metabolites 5 µM
T1 construct: soluble ER luminal domain (residues 105 to 458) of wild-type human FicD; 6xHis-Sumo (N, cleaved yes); made in house; host or cells: Rosetta(DE3) E. coli
T1 sequence (Q9BVA6 105-458): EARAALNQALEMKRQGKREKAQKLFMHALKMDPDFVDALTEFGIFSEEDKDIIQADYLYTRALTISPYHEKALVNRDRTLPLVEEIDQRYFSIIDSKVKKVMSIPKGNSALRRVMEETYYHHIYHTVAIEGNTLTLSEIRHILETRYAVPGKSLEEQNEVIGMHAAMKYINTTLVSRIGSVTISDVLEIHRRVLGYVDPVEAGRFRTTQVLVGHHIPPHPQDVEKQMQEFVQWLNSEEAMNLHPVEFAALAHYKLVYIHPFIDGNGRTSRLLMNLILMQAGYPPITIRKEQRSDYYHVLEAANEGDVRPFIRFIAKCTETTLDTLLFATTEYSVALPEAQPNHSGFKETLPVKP

[2] = target: T2, FicD^H363A (Homo sapiens, UniProt Q9BVA6, H363A); assay: MIDAS metabolite screen, FicD^H363A; type: binding; settings: cutoff Q < 0.05 and |Log2 corrected fold change| > 2, metabolites 5 µM
T2 construct: soluble ER luminal domain (residues 105 to 458) of wild-type human FicD and three mutants; 6xHis-Sumo (N, cleaved yes); made in house; host or cells: Rosetta(DE3) E. coli
T2 sequence (Q9BVA6 105-458 H363A): T1 sequence (Q9BVA6 105-458) with H259A
Description: (§1) To identify small-molecule metabolite interactions with FicD, we applied an unbiased high-throughput screening approach known as MIDAS ([44]). Given the high concentrations of protein required for MIDAS screening, we purified the soluble ER luminal domain (residues 105 to 458) of wild-type human FicD and three mutants FicD^E234G, FicD^L258D, and FicD^H363A for screening (Fig. 1A). These mutants were selected based on their well-established biochemical features ([23], [24], [31]). All three are predicted to enhance detection of protein–metabolite interactions (PMIs) relative to FicD^WT through increased affinity for nucleotide substrates (FicD^E234G), improved solubility (FicD^L258D), and loss of catalytic turnover (FicD^H363A) (Fig. 1A). To decrease the potential for nonspecific small-molecule binding, we ensured the purity of our FicD proteins (SI Appendix, Fig. S1 A and B). As reported by other investigators ([24], [31]), we observe an increase in elution volume of the FicD^L258D mutant, consistent with its monomerization (SI Appendix, Fig. S1C).
(§2) Out of the 602 naturally occurring human metabolites in the MIDAS library, we applied a significance cutoff (q value < 0.05) to identify 12 PMIs with a Log2 (corrected fold change) of >2 and two PMIs with a Log2 (corrected fold change) <-2 in the FicD^WT screen (Fig. 1B and SI Appendix, Table S2). Hits were additionally triaged based on detection of multiple adducts of the metabolite in a single dataset (FPP and […] in Fig. 1B) and identification of the same metabolites across three or more of the FicD construct screens (Fig. 1C). Three chemical classes passed this initial triage: adenosine nucleotides, isoprenoid diphosphates, and thyroid hormone intermediates (Fig. 1 B and C and SI Appendix, Tables S2–S5).
(§3) 22°C. Induced cultures were then harvested by centrifugation at 8000G for 15 minutes at 4°C and […]
(§4) Bacterial pellets were resuspended in 30-50mL of 50mM Tris pH 7.4/150mM NaCl/10% glycerol with one Roche cOmplete EDTA-Free Protease inhibitor cocktail tablet (cat no. COEDTAF-RO).
(§5) Triton-X100 to a final concentration of 0.2%, Chicken-egg lysozyme to a final concentration of 0.4ug/mL, and 2-5uL of Millipore Benzonase Nuclease (cat no. 70664) were added to bacterial suspension prior to sonication at 40-50% amplitude for 1-3 minutes in pulses of 5 seconds on and 30 seconds off on ice with a Sonics VCX 750 Ultrasonicator. Bacterial lysate was then clarified by centrifugation at 30,000 x g for 30 minutes at 4°C.
Clarified lysate was rotated with Qiagen NiNTA agarose beads (cat no. 30210) for 1-2 hours at 4°C. […]

[3] = target: T3, FicD^L258D (Homo sapiens, UniProt Q9BVA6, L258D); assay: MIDAS metabolite screen, FicD^L258D; type: binding; settings: cutoff Q < 0.05 and |Log2 corrected fold change| > 2, metabolites 5 µM
T3 construct: soluble ER luminal domain (residues 105 to 458) of wild-type human FicD and three mutants; 6xHis-Sumo (N, cleaved yes); made in house; host or cells: Rosetta(DE3) E. coli
T3 sequence (Q9BVA6 105-458 L258D): T1 sequence (Q9BVA6 105-458) with L154D
Description: as §1, §2, §3, §4, §5
Clarified lysate was rotated with Qiagen NiNTA agarose beads (cat no. 30210) for 1-2 hours at 4°C. The beads were then transferred to a 15mL conical vial, resuspended in 10-15mL wash buffer (50mM Tris pH 7.4/150mM NaCl/10% glycerol/0.2% Triton-X 100/10mM imidazole), and spun down at 1000G for 1 minute at 4°C, after which the supernatant was aspirated from the beads. This washing step was repeated 2-4 times to rinse bacterial lysate from the beads prior to on-column washing. The beads were then transferred to BioRad Econopac 20mL bed volume column (cat no.
7321010) and washed with 10-15mL of wash buffer (repeated at least three times), 10mL of ATP wash (50mM Tris pH 7.4/300mM KCl/10mM MgCl2/500uM ATP, repeated once), and finally with 10-15mL wash buffer without Triton-X 100 (repeated at least three times). Protein was eluted in 500μL-1mL elution buffer (50mM Tris pH 7.5/150mM NaCl/10% glycerol/0.5% CHAPS). […]

[4] = target: T4, FicD^E234G (Homo sapiens, UniProt Q9BVA6, E234G); assay: MIDAS metabolite screen, FicD^E234G; type: binding; settings: cutoff Q < 0.05 and |Log2 corrected fold change| > 2, metabolites 5 µM
T4 construct: soluble ER luminal domain (residues 105 to 458) of wild-type human FicD and three mutants; 6xHis-Sumo (N, cleaved yes); made in house; host or cells: Rosetta(DE3) E. coli
T4 sequence (Q9BVA6 105-458 E234G): T1 sequence (Q9BVA6 105-458) with E130G

[5] = test system: FicD; design: method as in PMID 40036289; settings: cited from earlier work

| Structure (SMILES) | MIDAS protein-metabolite interaction (enrichment/depletion) [1] | MIDAS protein-metabolite interaction (enrichment/depletion) [2] | MIDAS protein-metabolite interaction (enrichment/depletion) [3] | MIDAS protein-metabolite interaction (enrichment/depletion) [4] | FicD inhibition reported in previous drug screens [5] |
| --- | --- | --- | --- | --- | --- |
| N[C@@H](Cc1ccc(Oc2ccc(O)c(I)c2)c(I)c1)C(=O)O [3,3’-Diiodothyronine] | significantly enriched | significantly enriched | significantly enriched | significantly enriched | – |
| N[C@@H](Cc1cc(I)c(Oc2ccc(O)c(I)c2)c(I)c1)C(=O)O [liothyronine] | – | – | – | – | small-molecule inhibitor of FicD |

From article PMC12974487, “Inhibition of FicD-mediated AMPylation and deAMPylation by isoprenoid diphosphates” (Proceedings of the National Academy of Sciences of the …, 2026)
